According to patent US6620837B1, “Antithrombotic agents” (Eli Lilly and Company, priority 1999, dated 2003):
Where a name gives a salt, the structure may show the parent alone.

Assays:
[1] = Volume of distribution (VD) after oral dosing, pharmacokinetic model; type: in vivo, dog; conditions: VD=Clearance/K; Clearance=Dose/AUC following oral dosing; compounds of the invention
Excerpt: Many of the antithrombotic compounds disclosed in the prior art are lipophilic and, therefore, undergo high volumes of distribution from the plasma component and into the tissues. Since thrombin resides in the plasma, this tissue distribution is not preferred. […] Data in Table 1 below confirms that the compounds of the present invention have lower volumes of distribution and, therefore, better pharmacokinetic properties than their corresponding compounds of formula I in which R^d is hydrogen.
The Volume of Distribution (VD) was calculated according to the standard equation:
where Clearance=Dose (ug)/AUC (ug/ml) where AUC is the amount of drug present in plasma following oral dosing and is measured as the area under a curve of drug concentration versus time. K(h^−1) is the elimination rate constant.
Test compound is formulated immediately prior to dosing by dissolving in sterile 0.9 percent saline to a 5 mg/mL preparation. Dogs are given a single 2 mg/kg dose of test compound by oral gavage. Blood samples (4.5 mL) are taken from the cephalic vein at 0.25, 0.5, 0.75, 1, 2, 3, 4 and 6 hours after dosing. Samples are collected in citrated Vacutainer tubes and kept on ice prior to reduction to plasma by centrifugation. Plasma samples are analyzed by HPLC MS. Plasma concentration of test compound is recorded and used to calculate the pharmacokinetic parameters: elimination rate constant, Ke; total clearance, Clt; volume of distribution, VD; time of maximum plasma test compound concentration, Tmax; maximum concentration of test compound of Tmax, Cmax; plasma half-life, t0.5; and area under the curve, A.U.C.; fraction of test compound absorbed, F.

VD [1] | melting point | Structure (SMILES)
3.36 L/kg |  | COC(=O)CCCOc1ccc(-c2sc3ccccc3c2Cc2ccc(OCCN3CCCC3)cc2)cc1C(N)=O [Example 4, 2-(3-Carbomethoxypropoxy)-5-[3-[4-[2-(1-pyrrolidinyl)ethoxy]benzyl]benzo[b]thiophen-2-yl]benzamide Oxalate Salt]
5.13 L/kg |  | O=C([O-])CCCOc1cc(-c2sc3ccccc3c2C(=O)c2ccc(OCCN3CCCC3=O)cc2)ccc1OCCN1CCCC1.[Li+] [Example 11]

More lines, now with the values behind:

Structure (SMILES) | VD [1] | melting point
O=C([O-])c1cc(-c2sc3ccccc3c2Cc2ccc(OCCN3CCCC3)cc2)ccc1OCCN1CCCC1.[Na+] [Example 1, 2-[2-(1-Pyrrolidinyl)ethoxy]-5-[3-[4-[2-(1-pyrrolidinyl)ethoxy]benzyl]benzo[b]thiophen-2-yl]benzoic Acid Sodium Salt] | 1.27 L/kg | 253 to 255 °C (dec.)
O=C([O-])CCCOc1ccc(-c2sc3ccccc3c2Cc2ccc(OCCN3CCCC3)cc2)cc1C(=O)[O-].[Na+].[Na+] [Example 2, 2-(3-Carboxypropoxy)-5-[3-[4-[2-(1-pyrrolidinyl)ethoxy]benzyl]benzo[b]thiophen-2-yl]benzoic Acid Disodium Salt] | 0.46 L/kg | > 250 °C
NC(=O)CCCOc1cc(-c2sc3ccccc3c2Cc2ccc(OCCN3CCCC3=O)cc2)ccc1OCCN1CCCC1 [Example 8, 2-[3-(4-Amino-4-oxobutoxy)-4-[2-(1-pyrrolidinyl)ethoxy]phenyl]-3-[4-[2-(2-oxopyrrolidin-1-yl)ethoxy]-benzyl]benzo[b]thiophene Oxalate] | 13.53 L/kg | 
